Experimental data from US6090801A, “Pharmaceutical compositions containing ceftriaxone and penems” (SmithKline Beecham p.l.c., priority 1993, dated 2000).

What was measured:
[1] = in vivo; cited from earlier work
Klebsiella pneumoniae 4 = experiment: MIC of ceftriaxone, alone and with compound of formula (I); assay type: cell-based
Enterobacter cloacae P99 = experiment: as above; assay type: cell-based
[2] = tested on: Bacteroides fragilis VP1 8908; experiment: as above; assay type: cell-based
various microorganisms = experiment: enhancement of antibacterial activity of ceftriaxone by compound of formula (I) (MIC data overall); assay type: cell-based; settings: with 1 μg/ml compound of formula (I); from β-lactamase inhibitory effect
Bacteroides fragilis = settings: coadministration with tazobactam; J. Antimicrobial Chemotherapy (1993), 32, 307-312; cited from earlier work
serum half-life = assay type: in vivo; settings: in words; compared with ceftriaxone
[3] = ceftriaxone + 1 μg/1 ml of compound of Formula (I)

| serum half life (serum half-life) | Structure (SMILES) | serum half-lives [1] | MIC + 1 μg/1 ml of compound of Formula (I) (Klebsiella pneumoniae 4; [3]) [µg/mL] | MIC (Klebsiella pneumoniae 4; ceftriaxone alone) [µg/mL] | MIC + 1 μg/1 ml of compound of Formula (I) (Enterobacter cloacae P99; Enterobacter cloacae P99, ceftriaxone + 1 μg/1 ml of compound of Formula (I)) [µg/mL] | MIC (Enterobacter cloacae P99; Enterobacter cloacae, P99, read-out: MIC Ceftriaxone alone) [µg/mL] | MIC ([2]; VP18908, ceftriaxone alone) [µg/mL] | MIC + 1 μg/1 ml of compound of Formula (I) [2, 3] [µg/mL] | enhancement of antibacterial activity of ceftriaxone (various microorganisms) | activity of ceftriaxone against anaerobes such as Bacteroides fragilis (Bacteroides fragilis) |
| --- | --- | --- | --- | --- | --- | --- | --- | --- | --- | --- |
|  | C[C@]1(Cn2ccnn2)[C@H](C(=O)O)N2C(=O)C[C@H]2S1(=O)=O [tazobactam] | ca. 1 hours |  |  |  |  |  |  |  |  |
|  | CO/N=C(\C(=O)N[C@@H]1C(=O)N2C(C(=O)O)=C(CSc3nc(=O)c(=O)[nH]n3C)CS[C@H]12)c1csc(N)n1 [Ceftriaxone, [6R-[6α,7β(Z)]]-7-[[(2-Amino4-thiazolyl)(methoxyimino)acetyl]amino]-8-oxo-3-[[(1,2,5,6-tetrahydro-2-methyl-5-6-dioxo-1,2,4-triazin-3-yl)thio]-methyl]-5-thia-1-azabicyclo[4-2-O]oct-2-ene-2-carboxylic acid] | ca. 8 hours | 0.5 | 16 | 0.5 | 128 | 128 | 2 | substantial enhancement of antibacterial activity | enhanced by coadministration with the β-lactamaseinhibitor tazobactam |
| more compatible with ceftriaxone | O=C([O-])C1=CS[C@@H]2/C(=C\c3cn4c(n3)SCC4)C(=O)N12.[Na+] (racemic) |  |  |  |  |  |  |  |  |  |
